Biological target: T1, OATP1A2 (Homo sapiens, UniProt P46721)
T1 sequence (P46721 1-670): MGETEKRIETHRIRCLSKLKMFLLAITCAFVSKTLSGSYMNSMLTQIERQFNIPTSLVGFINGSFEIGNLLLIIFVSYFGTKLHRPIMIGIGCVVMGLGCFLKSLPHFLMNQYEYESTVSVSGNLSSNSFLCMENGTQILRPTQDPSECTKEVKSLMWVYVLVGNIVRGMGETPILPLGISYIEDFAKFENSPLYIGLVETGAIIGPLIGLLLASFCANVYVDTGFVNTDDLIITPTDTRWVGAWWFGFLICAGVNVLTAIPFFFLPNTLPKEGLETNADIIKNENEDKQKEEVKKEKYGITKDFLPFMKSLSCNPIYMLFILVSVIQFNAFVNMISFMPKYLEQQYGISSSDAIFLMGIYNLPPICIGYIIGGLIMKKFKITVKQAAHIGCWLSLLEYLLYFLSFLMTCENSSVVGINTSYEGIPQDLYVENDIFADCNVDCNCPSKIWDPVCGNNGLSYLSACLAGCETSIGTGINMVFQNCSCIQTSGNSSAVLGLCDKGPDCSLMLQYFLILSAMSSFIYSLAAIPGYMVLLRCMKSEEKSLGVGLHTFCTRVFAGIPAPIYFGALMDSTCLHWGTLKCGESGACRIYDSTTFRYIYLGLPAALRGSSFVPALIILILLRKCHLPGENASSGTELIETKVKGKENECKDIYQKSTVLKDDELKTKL
Assay: Inhibition of fexofenadine uptake in OATP1A2-transfected HEK293T/17 cells
Assay type: cell-based
Conditions: inhibitor 250 μmol/l, fexofenadine 5 μmol/l, 30 min

`O=C1OC(c2ccc(O)c(S(=O)(=O)O)c2)(c2ccc(O)c(S(=O)(=O)O)c2)c2c(Br)c(Br)c(Br)c(Br)c21` [BSP, bromosulfophthalein] was tested, and the “Inhibition of fexofenadine uptake” value was “did not inhibit”.
